Among the data in patent publication US8871934B2, “Fluorene compound and pharmaceutical use thereof” (Japan Tobacco Inc., priority 2008, dated 2014) are IC50 values, retold here.

The assay has as its target human PDHK2 (hPDHK2) (Homo sapiens (Human), UniProt Q15119). As to the kind of experiment: Inhibitory action of PDHK activity in vitro (kinase reaction, residual PDH activity measured). In kind it is biochemical.
[1] abbreviates: PDHK inhibitory activity, class symbol of IC50.
The mark [2] stands for this setting: read-out: PDHK inhibitory activity IC50.
[3] abbreviates: PDHK inhibitory activity (class symbol).

Read-outs that look alike come from different tables or passages of the source.

Take `CC(=O)N(C)CCOc1cc(-c2cncnc2)c2c(c1)C(O)(C(F)(F)F)c1ccccc1-2` (stereo not drawn) [compound 422]: the IC50 under setting [1] was under 100 nM and the IC50 under setting [2] came to 23 nM.

Turning to `Cn1nnc(-c2cccc3c2-c2ccccc2C3(O)C(F)(F)F)n1` (stereo not drawn) [compound 250], the IC50 was over 1000 nM under setting [1] and 1610 nM under setting [2].

`CN(C)C(=O)CCCOc1ccc2c(c1)C(O)(C(F)(F)F)c1ccccc1-2` (stereo not drawn) [compound 282]: the IC50 is 100 to 1000 nM under setting [1] and 226 nM under setting [2].

Take `CC(=O)NCc1ccc2c(c1)C(O)(C(F)(F)F)c1ccccc1-2` (stereo not drawn) [compound 415]: the IC50 by setting is: under setting [1], over 1000 nM; under setting [2], 9190 nM.

Take `CCCCOc1ccc2c(c1)C(O)(C(F)(F)F)c1ccccc1-2` (stereo not drawn) [compound 249]: the IC50 was 100 to 1000 nM under setting [1] and 719 nM under setting [2].

For the molecule `OC1(C(F)(F)F)c2ccccc2-c2c(-c3cnco3)cccc21` (stereo not drawn) [compound 92], the IC50 runs as follows: under setting [1], 100 to 1000 nM; under setting [2], 405 nM.

`CCCCN(C)C(=O)c1ccc2c(c1)C(O)(C(F)(F)F)c1ccccc1-2` (stereo not drawn) [compound 308]: the IC50 by setting is: under setting [1], over 1000 nM; under setting [2], 2670 nM.

For `COC(=O)c1ccc(-c2ccc3c(c2)C(O)(C(F)(F)F)c2ccccc2-3)cc1Cl` (stereo not drawn) [compound 236], the IC50 was 100 to 1000 nM under setting [1] and 355 nM under setting [2].

On to `OC1(C(F)(F)F)c2ccccc2-c2ccc(-c3ccccc3F)cc21` (stereo not drawn) [compound 149], for which the IC50 by setting is: under setting [1], over 1000 nM; under setting [2], 1220 nM.

Take `O=C1CCC(COc2ccc3c(c2)C(O)(C(F)(F)F)c2ccccc2-3)N1CCCO` (stereo not drawn) [compound 421]: the IC50 reads like this: under setting [1], 100 to 1000 nM; under setting [2], 233 nM.

On to `NC(=O)c1cc(-c2cnn(CC3CCCCC3)c2)cc2c1-c1ccccc1C2(O)C(F)(F)F` (single isomer, unassigned) [compound 667, 2-(1-cyclohexylmethyl-1H-pyrazol-4-yl)-9-hydroxy-9-trifluoromethyl-9H-fluorene-4-carboxylic acid amide], for which the IC50 was under 100 nM under setting [3] and 15 nM under setting [2].

As for `NC(=O)c1cc(C(=O)N2CCC2)cc2c1-c1ccccc1C2(O)C(F)(F)F` (stereo not drawn) [compound 174], the IC50 is under 100 nM under setting [1] and 66 nM under setting [2].

On to `Cn1cc(-c2cc(OCCCC(=O)O)cc3c2-c2ccccc2C3(O)C(F)(F)F)cn1` (single isomer, unassigned) [compound 504, 4-[9-hydroxy-4-(1-methyl-1H-pyrazol-4-yl)-9-trifluoromethyl-9H-fluoren-2-yloxy]-butyric acid], for which the IC50 under setting [1] is under 100 nM and the IC50 under setting [2] came to 19 nM.

In the case of `O=C1CCCN1c1ccc2c(c1)C(O)(C(F)(F)F)c1ccccc1-2` (stereo not drawn) [compound 147], the IC50 is over 1000 nM under setting [1] and 1730 nM under setting [2].

As for `NCc1cccc2c1-c1ccccc1C2(O)C(F)(F)F` (stereo not drawn) [compound 336], the IC50 is over 1000 nM under setting [1] and over 10000 nM under setting [2].

Consider `Cn1cc(-c2cc(OCCCC(=O)O)cc3c2-c2ccccc2C3(O)C(F)(F)F)cn1` (stereo not drawn) [compound 449], for which the IC50 under setting [1] was under 100 nM and the IC50 under setting [2] stood at 47 nM.

In the case of `NC(=O)COc1cnc2c(c1)C(O)(C(F)(F)F)c1ccccc1-2` (stereo not drawn) [compound 434], the IC50 by setting is: under setting [1], 100 to 1000 nM; under setting [2], 561 nM.

As to `NC(=O)c1cc(Cl)cc2c1-c1ccccc1C2(O)C(F)(F)F` (stereo not drawn) [compound 636], the IC50 is, setting by setting: under setting [3], 100 to 1000 nM; under setting [2], 239 nM.

On to `CN(C)C(=O)c1cccc2c1-c1ccccc1C2(O)C(F)(F)F` (stereo not drawn) [compound 35], for which the IC50 under setting [1] was over 1000 nM and the IC50 under setting [2] is over 100000 nM.

Turning to `Cn1cc(-c2cc(C(=O)N3CCC3)cc3c2-c2ccccc2C3(O)C(F)(F)F)cn1` (stereo not drawn) [compound 355], the IC50 is under 100 nM under setting [1] and 40 nM under setting [2].

With `NC(=O)c1cc(OCCO)cc2c1-c1ccccc1C2(O)C(F)(F)F` (stereo not drawn) [compound 640], the IC50 under setting [3] lay within 100 to 1000 nM and the IC50 under setting [2] was 732 nM.

On to `CN(C)C(=O)C1CN(C(=O)c2ccc3c(c2)C(O)(C(F)(F)F)c2ccccc2-3)C1` (stereo not drawn) [compound 125], for which the IC50 runs as follows: under setting [1], 100 to 1000 nM; under setting [2], 227 nM.

For `O=C(c1ccc2c(c1)C(O)(C(F)(F)F)c1ccccc1-2)N1CC(CO)C1` (stereo not drawn) [compound 87], the IC50 runs as follows: under setting [1], 100 to 1000 nM; under setting [2], 669 nM.

In the case of `CCn1cc(-c2cccc3c2-c2ccccc2C3(O)C(F)(F)F)cn1` (stereo not drawn) [compound 347], the IC50 reads like this: under setting [1], under 100 nM; under setting [2], 88 nM.

In the case of `CN(C)C(=O)C1CN(C(=O)c2cc(Cl)c3c(c2)C(O)(C(F)(F)F)c2ccccc2-3)C1` (stereo not drawn) [compound 329], the IC50 is under 100 nM under setting [1] and 66 nM under setting [2].

`COc1nc2c(cc1C(=O)N1CCC1)C(O)(C(F)(F)F)c1ccccc1-2` (stereo not drawn) [compound 235]: the IC50 under setting [1] fell in the range of 100 to 1000 nM and the IC50 under setting [2] was determined as 803 nM.

`NC(=O)c1cc(CCCN2CCCC2=O)cc2c1-c1ccccc1C2(O)C(F)(F)F` (stereo not drawn) [compound 655]: the IC50 under setting [3] is under 100 nM and the IC50 under setting [2] worked out at 73 nM.

With `CNCCCOc1ccc2c(c1)C(O)(C(F)(F)F)c1ccccc1-2` (stereo not drawn) [compound 332], the IC50 runs as follows: under setting [1], 100 to 1000 nM; under setting [2], 912 nM.

With `OC1(C(F)(F)F)c2ccccc2-c2ccc(C3CCCCC3)cc21` (stereo not drawn) [compound 169], the IC50 under setting [1] is over 1000 nM and the IC50 under setting [2] amounted to 7360 nM.

`O[C@H]1CCN(CCOc2ccc3c(c2)C(O)(C(F)(F)F)c2ccccc2-3)C1` (stereo partly drawn) [compound 389]: the IC50 reads like this: under setting [1], 100 to 1000 nM; under setting [2], 822 nM.

As to `Cc1cc(C(=O)N2CCC2)cc2c1-c1ccccc1C2(O)C(F)(F)F` (single isomer, unassigned) [compound 135], the IC50 runs as follows: (class symbol of IC50, read-out: PDHK inhibitory activity) over 1000 nM; under setting [2], over 1000 nM.

`O=C(COc1ccc2c(c1)C(O)(C(F)(F)F)c1ccccc1-2)NCCO` (stereo not drawn) [compound 365]: the IC50 runs as follows: under setting [1], over 1000 nM; under setting [2], 1330 nM.

Regarding `CN(C)C(=O)CCOc1cc(-c2cnn(C)c2)c2c(c1)C(O)(C(F)(F)F)c1ccccc1-2` (stereo not drawn) [compound 455], the IC50 runs as follows: under setting [1], under 100 nM; under setting [2], 26 nM.

Turning to `CC(C)(C)OC(=O)NCCOc1ccc2c(c1)C(O)(C(F)(F)F)c1ccccc1-2` (stereo not drawn) [compound 323], the IC50 runs as follows: under setting [1], 100 to 1000 nM; under setting [2], 362 nM.

With `OC1(C(F)(F)F)c2ccccc2-c2c(Cl)cccc21` (stereo not drawn) [compound 6], the IC50 was over 1000 nM under setting [1] and 2290 nM under setting [2].

Regarding `OC1(C(F)(F)F)c2ccccc2-c2ccc(Br)cc21` (stereo not drawn) [compound 7], the IC50 under setting [1] was over 1000 nM and the IC50 under setting [2] was found to be 1440 nM.

As for `COC(=O)C1CCCN1C(=O)c1ccc2c(c1)C(O)(C(F)(F)F)c1ccccc1-2` (stereo not drawn) [compound 167], the IC50 runs as follows: under setting [1], over 1000 nM; under setting [2], 1950 nM.

Turning to `COc1ccccc1-c1ccc2c(c1)C(O)(C(F)(F)F)c1ccccc1-2` (stereo not drawn) [compound 170], the IC50 is over 1000 nM under setting [1] and 6740 nM under setting [2].

Consider `CC(C)(CC(=O)O)n1cc(-c2cc(F)cc3c2-c2ccccc2C3(O)C(F)(F)F)cn1` (single isomer, unassigned) [compound 610], for which the IC50 under setting [3] was under 100 nM and the IC50 under setting [2] stood at 41 nM.

As for `CCOc1ccc2c(c1)C(O)(C(F)(F)F)c1ccccc1-2` (stereo not drawn) [compound 89], the IC50 under setting [1] was over 1000 nM and the IC50 under setting [2] was 2150 nM.

As to `CNC(=O)COc1cc(-c2cnn(C)c2)c2c(c1)C(O)(C(F)(F)F)c1ccccc1-2` (stereo not drawn) [compound 442], the IC50 is, setting by setting: under setting [1], under 100 nM; under setting [2], 40 nM.

Turning to `CN(CCOc1ccc2c(c1)C(O)(C(F)(F)F)c1ccccc1-2)C(=O)CO` (stereo not drawn) [compound 348], the IC50 was 100 to 1000 nM under setting [1] and 634 nM under setting [2].

Take `CC(=O)N(CCOc1ccc2c(c1)C(O)(C(F)(F)F)c1ccccc1-2)CCC(=O)O` (stereo not drawn) [compound 443]: the IC50 runs as follows: under setting [1], over 1000 nM; under setting [2], 1150 nM.

As to `O=C1CCCCN1CCOc1ccc2c(c1)C(O)(C(F)(F)F)c1ccccc1-2` (stereo not drawn) [compound 416], the IC50 is 100 to 1000 nM under setting [1] and 104 nM under setting [2].

Regarding `COC(=O)C1CN(C(=O)c2ccc3c(c2)C(O)(C(F)(F)F)c2ccccc2-3)C1` (stereo not drawn) [compound 120], the IC50 was 100 to 1000 nM under setting [1] and 174 nM under setting [2].

On to `Cc1cc(-c2cnn(CCO)c2)c2c(c1)C(O)(C(F)(F)F)c1ccccc1-2` (stereo not drawn) [compound 492], for which the IC50 reads like this: under setting [1], under 100 nM; under setting [2], 40 nM.

In the case of `CNC(=O)c1ccc2c(c1)C(O)(C(F)(F)F)c1ccccc1-2` (stereo not drawn) [compound 30], the IC50 is over 1000 nM under setting [1] and 8610 nM under setting [2].

`CON(C)C(=O)c1cccc2c1-c1ccccc1C2(O)C(F)(F)F` (stereo not drawn) [compound 65]: the IC50 by setting is: under setting [1], over 1000 nM; under setting [2], over 100000 nM.

As to `N#Cc1cccc2c1-c1ccccc1C2(O)C(F)(F)F` (stereo not drawn) [compound 49], the IC50 under setting [1] is over 1000 nM and the IC50 under setting [2] is 1790 nM.

Turning to `CN(C)C1CCN(C(=O)c2ccc3c(c2)C(O)(C(F)(F)F)c2ccccc2-3)C1` (stereo not drawn) [compound 216], the IC50 reads like this: under setting [1], over 1000 nM; under setting [2], 2560 nM.

For `OC1(C(F)(F)F)c2ccccc2-c2c(C(F)(F)F)cccc21` (stereo not drawn) [compound 64], the IC50 is over 1000 nM under setting [1] and 18000 nM under setting [2].

Take `NC(=O)c1ccccc1-c1ccc2c(c1)C(O)(C(F)(F)F)c1ccccc1-2` (stereo not drawn) [compound 182]: the IC50 under setting [1] is over 1000 nM and the IC50 under setting [2] is over 10000 nM.

Take `Cc1noc(-c2ccc3c(c2)C(O)(C(F)(F)F)c2ccccc2-3)n1` (stereo not drawn) [compound 247]: the IC50 is 100 to 1000 nM under setting [1] and 547 nM under setting [2].

On to `OC1(C(F)(F)F)c2ccccc2-c2c(-c3ccncc3)cccc21` (stereo not drawn) [compound 139], for which the IC50 runs as follows: under setting [1], over 1000 nM; under setting [2], over 10000 nM.

As for `O=C(O)c1ccc2c(c1)-c1ccccc1C2(O)C(F)(F)F` (stereo not drawn) [compound 41], the IC50 by setting is: under setting [1], over 1000 nM; under setting [2], 68600 nM.

Turning to `CNC(=O)c1cccc(-c2ccc3c(c2)C(O)(C(F)(F)F)c2ccccc2-3)c1` (stereo not drawn) [compound 157], the IC50 under setting [1] was in the range of 100 to 1000 nM and the IC50 under setting [2] turned out to be 358 nM.

Regarding `CCOC1CN(C(=O)c2ccc3c(c2)C(O)(C(F)(F)F)c2ccccc2-3)C1` (stereo not drawn) [compound 104], the IC50 is, setting by setting: under setting [1], 100 to 1000 nM; under setting [2], 279 nM.
